Source: US20260027094A1, “USE OF PYRIDONE DERIVATIVE” (GUANGZHOU JOYO PHARMATECH CO., LTD, priority 2022, published 2026)

Test system: TNBS-induced SD rat models of chronic colitis with intestinal fibrosis
Experiment: Pharmacodynamic experiment of TNBS-induced rat models of chronic colitis with intestinal fibrosis
Assay type: in vivo, SD rats
Conditions: for AUC(0-10 d) (D 0-D 10) of DAI scores: after first TNBS induction; for AUC(0-10 d) (D 0-D 10) of DAI scores / AUC(14-24 d) (D 14-D 24) of DAI scores: mean ± SD; for AUC(14-24 d) (D 14-D 24) of DAI scores: after second TNBS induction; for CVF (%) of colon middle segment: Masson staining, model control 6.39 ± 3.16, normal 0.74 ± 0.32; for Inflammatory response (points), histopathological score of colon tissue / Tissue ulcer (points), histopathological score of colon tissue: colon middle segment, model control 2.00 ± 0.00; for HYP (μg/g) of colon middle segment: model control 2109.99 ± 385.85, normal 1141.78 ± 106.42; for Change rate of AUC(0-10 d) (%) / Change rate of AUC(14-24 d) (%): relative to model control group
From the text: • 1) Animals: SD rats, specific pathogen-free (SPF) grade, male, aged 7 to 8 weeks at the time of grouping, with 10 rats per group. The animals were supplied by Beijing HFK Bioscience Co., Ltd. • 2) Reagents, positive drugs, and test drugs • A. Reagents
• B. Positive Drugs: Sulfasalazine Colon-Soluble Capsules, Supplied by Guangdong Qiangji Pharmaceutical Co., Ltd. • C. Test Drug: Compound I, Supplied by Guangzhou JOYO Pharmatech Co., Ltd. • 3) Modeling method
TNBS two-enema method: After the adaptation period inspection and observation were qualified, experimental animals were screened by body weight and randomly divided into six experimental groups based on body weight. The groups included a normal control group, a model control group, a positive drug treatment group, a test compound low dose treatment group, a test compound medium dose treatment group, and a test compound high dose treatment group, with 10 rats in each group. On the day of grouping, animals in the normal control group were administered 50% ethanol solution via enema, while animals in the other groups were administered TNBS ethanol solution via enema. The dose of TNBS was 30 mg per animal, with the induction of the model performed twice at a frequency of once every two weeks. The experimental period lasted for 4 weeks, during which all animals were given normal access to water and food. • 4) Grouping and administration
The Disease Activity Index (DAI) scoring was performed on each group of experimental animals based on indicators such as animal body weight, stool morphology and characteristics, and occult blood or hematochezia. Scoring was performed after model induction, once a day for 10 consecutive days, for a total of 2 rounds.
Note: The DAI score was performed based on the percentage of body weight loss, stool morphology, and progression of blood in the stool. Statistical analysis was conducted comprehensively using these three scoring indicators. • 6) Endpoint sample collection, histopathological analysis, and hydroxyproline content analysis • A. After euthanizing the animals with pentobarbital sodium anesthesia, the colon, i.e., the segment from the end of cecum to the anus, was excised. The intestinal segment was flushed with normal saline, and the entire colon was evenly divided into upper, middle, and lower segments. The middle segment of the colon was further divided, with part of the tissue quickly frozen in liquid nitrogen and stored in a −80° C. refrigerator for measuring the total hydroxyproline levels in the middle segment samples of the colon of animals in each group. The remaining middle segment tissue was fixed in 10% formaldehyde, embedded in paraffin, and sectioned into 3 μm-thick slices. These slices were then deparaffinized in xylene, rehydrated through a graded ethanol series, subjected to H&E staining and Masson staining, dehydrated, cleared, sealed, and observed under a microscope to capture histopathological changes. Routine tissue freezing was performed. • B. Histopathological analysis
• a: Based on the Masson staining results, the area of collagen staining-positive regions and the total area of samples from the middle segment samples of the colon (submucosa and muscularis) of animals in each experimental group were statistically analyzed using Image J to calculate the collagen volume fraction (CVF %) of each sample. • C. Detection of hydroxyproline levels in the colon
The middle segment samples of the colon were processed according to the instructions, using the hydroxyproline detection kit. The total hydroxyproline levels in the middle segment samples of the colon of animals in each group were measured.

[1] = Compound I high dose 15 mg/kg oral gavage twice a day
[2] = Compound I high dose 15 mg/kg twice a day for 4 weeks
[3] = Compound I high dose 15 mg/kg twice a day
[4] = Compound I low dose 3 mg/kg oral gavage twice a day
[5] = Compound I low dose 3 mg/kg twice a day for 4 weeks
[6] = Compound I low dose 3 mg/kg twice a day
[7] = Compound I medium dose 6 mg/kg oral gavage twice a day
[8] = Compound I medium dose 6 mg/kg twice a day for 4 weeks
[9] = Compound I medium dose 6 mg/kg twice a day

## CC1(c2ccc(=O)n(-c3ccsc3)c2)COC1 [Compound I]
Compound I 3.0, 6.0 and 15.0 mg/kg twice a day, 4 weeks
  Efficacy evaluation result (conclusion): significant therapeutic effect
[1]
  AUC(0-10 d) (D 0-D 10) of DAI scores: 33.50 ± 3.97
  AUC(14-24 d) (D 14-D 24) of DAI scores: 15.40 ± 3.50
[2]
  CVF (%) of colon middle segment: 2.37 ± 1.33 %
  Inflammatory response (points), histopathological score of colon tissue: 0.80 ± 0.79 points
  Tissue ulcer (points), histopathological score of colon tissue: 0.70 ± 0.67 points
  HYP (μg/g) of colon middle segment: 1270.56 ± 287.01 µg/g
[3]
  Change rate of AUC(0-10 d) (%): −26.78%
  Change rate of AUC(14-24 d) (%): −35.97%
[4]
  AUC(0-10 d) (D 0-D 10) of DAI scores: 37.15 ± 4.93
  AUC(14-24 d) (D 14-D 24) of DAI scores: 19.30 ± 2.79
[5]
  CVF (%) of colon middle segment: 2.97 ± 1.78 %
  Inflammatory response (points), histopathological score of colon tissue: 1.00 ± 0.67 points
  Tissue ulcer (points), histopathological score of colon tissue: 0.80 ± 0.63 points
  HYP (μg/g) of colon middle segment: 1333.43 ± 155.33 µg/g
[6]
  Change rate of AUC(0-10 d) (%): −18.80%
  Change rate of AUC(14-24 d) (%): −19.75%
[7]
  AUC(0-10 d) (D 0-D 10) of DAI scores: 36.05 ± 4.87
  AUC(14-24 d) (D 14-D 24) of DAI scores: 17.25 ± 3.16
[8]
  CVF (%) of colon middle segment: 2.36 ± 1.47 %
  Inflammatory response (points), histopathological score of colon tissue: 0.70 ± 0.67 points
  Tissue ulcer (points), histopathological score of colon tissue: 0.70 ± 0.67 points
  HYP (μg/g) of colon middle segment: 1228.40 ± 235.44^####+ μg/g
[9]
  Change rate of AUC(0-10 d) (%): −21.20%
  Change rate of AUC(14-24 d) (%): −28.27%
All Compound I treatment groups (3, 6, 15 mg/kg twice a day)
  Colon tissue healing and degree of fibrosis (histopathology): tissue healing and a reduction in the degree of fibrosis were observed
Oral gavage twice a day, certain dose-dependent relationship
  Effective dose (colon fibrosis, HYP level improvement): 3.0 mg/kg
Oral gavage twice a day, chronic colitis disease process
  Effective low dose (DAI AUC(0-10 d) improvement): 3.0 mg/kg
